The values below are quoted from earlier work in patent publication US20220192199A1, “METHOD FOR REMOVING BIOFILM” (KAO CORPORATION, priority 2019, published 2022).

For this series the following is noted: primary dissociation constant.

For `O=C(O)CCO` [3-hydoxypropionic acid], the pKa1 is 4.5.
With `O=C(O)[C@H](O)[C@@H](O)[C@H](O)[C@H](O)CO` [gluconic acid], the pKa1 is reported as 3.86.
